Series [1] in a line: Antiangiogenic activity in human PC3 cells assessed as reduction in EGF levels at […] +/- […] uM after 72 hrs by ELISA relative to control. Details: scale not given: the % may be the effect or the level left. The format is functional, PC-3. (In an ELISA, binding on a coated surface is turned into a signal by an enzyme label.)
The nature of series [2]: Solubility of the compound. The format is physicochemical.

For the molecule `NS(=O)(=O)c1ccc(Nc2nccc(Nc3ccc4[nH]ncc4c3)n2)cc1`, in series [1], the Activity came out at 34.6%. In series [2], the solubility entry is given as “Insoluble”.
